No end group written: not given here.
How the values were obtained:
[1] = system: ERK1/2; experiment: Immunoblot of phosphorylated ERK1/2 in WT-CST perfused hearts; parameters: species or system rat; conditions: 110 nM
Protocol: Cardiac signaling—Hearts were perfused with or without 110 nM WT-Cts as before. At the end of experiment hearts were snap frozen under liquid nitrogen and homogenized with 1 ml of ice cold 0.2 M sucrose, Tris maleate (pH 7.0) buffer supplemented with 2 mM EDTA, pH 8.0, 1 mM sodium orthovanadate, 10 mM sodium pyrophosphate, 1 mM phenylmethylsulfonyl fluoride, 10 μg/ml leupeptin, 10 μg/ml aprotinin and 0.1 mM 3-isobutyl-1-methylxanthine. SR membrane fractions were isolated from cytosolic proteins as described before (27). Protein content was determined by Bradford assay (BIO-RAD) and 100 μg of cytosolic protein was subjected to SDS-PAGE immunoblot analysis for phosphorylated-ERK, total ERK (P-ERK and T-ERK; Santa Cruz, Calif.). […]
Statistics—Data are expressed as the mean±SEM. Curve fitting was accomplished in the program Kaleidagraph (Synergy Software, Reading, Pa.). […] For analysis of phosphorylated proteins, levels were quantified using Bio-Rad QuantifyOne and volumes of phosphorylated proteins were divided by the levels of non-phosphorylated proteins to calculate fold activation. Stimulation of protein activity was expressed as fold increase over vehicle-treated control. The means and S.E.M. were calculated for each treatment. […]

[2] = system: ECs; experiment: In-vitro angiogenic effects on ECs (migration, proliferation, matrigel assay); assay type: cell-based
[3] = system: Wild-type and CgA-KO mice; experiment: Heart rate variability (EKG) in sedated mice; assay type: in vivo
Protocol: Animals. Six Wild-type and seven CgA-KO mice were used in this study (see example 1 for the details).
Mice were sedated by an intraperitoneal injection of a 1 μl solution per gm body weight, containing Ketamine (100 mg/ml)+Xylazine (20 mg/ml) and Acepromazine (10 mg/ml). Mice were gently strapped onto the surgical table in a fixed supine position with silk tape. Body temperature was continuously monitored on an analog thermometer, model 44TA (YSI, Ohio) using a rectal probe, and maintained between 36.5 and 38.5° C. throughout the experiment using a controlled heating box. The analog output signal fed into the chart recorder (AD Instruments, Colorado) and suitably amplified. The adequacy of sedation was regularly verified by absence of vibrissae twitching and withdrawal reflex to a noxious toe-pinch and was supplemented intraperitoneally as needed. Animals breathed ambient air spontaneously throughout the experimental run. Investigational agent, a nicotinic cholinergic receptor antagonist (8), CST was dissolved in distilled water and injected intraperitoneally at a volume of 70 μl from a 1 mM working solution.
EKG electrodes were attached to all four limbs (incl. reference electrode) via 30G stainless steel hypodermic needles (Popper & Sons, New York) so as to record standard bipolar Einthoven derivation (lead I, II and III) EKG signals. The EKG signals were bandpass-filtered between 0.1 and 3 kHz with a notch filter set at 60 Hz, and sampled at 2 kHz. The voltage output fed into a data acquisition system (PowerLab-8, AD Instruments) for eventual off-line measurements and analysis by chart and scope (Labchart 6) software. Heart rate and rhythm were also monitored continuously on an oscilloscope (Tektronix 5113, Oregon) throughout the experiment.
EKG traces were edited using the Chart® software package. High frequency noise from the EKG was removed using a 45 Hz low-pass filter to enable detection of the R-waves, whenever appropriate. A threshold electrical potential value was set for each trace and the post-threshold maximum was taken as the R-wave. Each trace was visually inspected for any undetected R-waves and these were manually inserted, while incorrectly detected R-waves or non-normal beats such as extrasystoles were deleted. Time and frequency domain analysis of HRV was performed using fast Fourier-transformation with a Hanning window. Spectral power was calculated on 50% overlapped blocks on sequences of 1024 points (beats). Time-domain parameters recorded or calculated included: mean R-R interval (in ms) [i.e., NN interval, i.e., normal-to-normal intervals]; standard deviation of all normal R-R interval (SDNN, in ms), reflecting total autonomic variability; square root mean of squared differences between adjacent normal R-R intervals (RMSSD), an index for short-term variations in inter-beat intervals, primarily of parasympathetic nature; and percentage of normal consecutive inter-beat intervals differing by >7 ms (NN7%), reflecting cardiac parasympathetic tone, were calculated directly from the sequence of interval times. NN7 is a murine-adjusted value based on PNN50 determined for humans (32). The mean HR was calculated as the mean sequence of reciprocals of the interval times. For non-linear measurements on the return map of R-R intervals (Lorenz plot), the images acquired by the chart software were imported into Image J (National Institutes of Health, Bethesda) for evaluating point dispersion of S1 and S2 (see below). The width and length of the dispersion of data in Lorenz plots reflects the level of short- and long-term beat-to-beat variability, respectively. The different frequency domain measures of HRV were computed using cut-off frequencies for power in the very low frequency (VLF), low-frequency range (LF) and high-frequency range (HF) based on human studies multiplied by a factor of ten for HR adjustment (the approximate ratio between murine and human HR) (33). […]

[4] = system: eNOS; experiment: eNOS signalling by immunoblotting of mouse tissues; assay type: in vivo; conditions: CgA-KO mice
Text: Adult WT (C57BL/6) and CgA-KO mice with mixed genetic background (129svJ×C57BL/6) were used in this study. Both WT and KO mice were generated from the original founder carrying mixed genotype (50% 129svJ: 50% C57BL/6) and were maintained by brother/sister mating. Hypertensive CGA-KO mice will serve as a model for hyper insulin sensitivity. WT mice were fed 60% high fat diet (HFD) for 20 weeks. Body weight and blood glucose levels were monitored and glucose and insulin tolerance testa were performed to determine status of insulin resistance. After 20 weeks of HFD feeding mice were injected IP with catestatin (40 μg/gm body weight) twice daily for 7 days. On the 8th day, 12 hours fasted mice were subjected to glucose tolerance tests to determine their insulin sensitivity. Tissues of WT and CgA-KO mice are analyzed AMPK and eNOS signalling by immunoblotting.

Q: For “SSMKLSFRARAYGFRGPGPQL [WT-CST, catestatin]”, which “Phosphorylation of ERK1/2” value [1] is on record?
A: Its value is “inhibited”.

Q: What about the “Concentration of maximal function” value [2] of the same sequence?
A: Its value is 1 nM.

Q: And the “Direct effects on ECs” value [2]?
A: The value was “exerts several direct effects on ECs including EC migration and proliferation”.

Q: And the “MAPK signaling pathway in ECs” value [2]?
A: The value was “induced activation of MAPK signaling pathway”.

Q: What about the “Angiogenic effects at higher concentration” value ([2]; 100 nM, EC migration, proliferation, in-vitro matrigel assay) of the same sequence?
A: The value was “angiogenic effects were still observed”.

Q: And the “Increased baseline heart rate” value ([3]; CgA KO mice, parenteral CST)?
A: The value was “rescued”.

Q: And the “HRV VLF power” value ([3]; KO mice)?
A: The value was 2.899±1.05 ln ms^2.

Q: And the “Time-domain parameters of HRV (SDNN, NN7%, RMSSD)” value ([3]; KO mice)?
A: Its value is “reversed”.

Q: And the “HRV VLF power” value ([3]; WT mice)?
A: Its value is 2.468±0.69 ln ms^2.

Q: What about the “Short-term and long-term variability of HRV (Lorenz analysis)” value ([3]; mouse, in vivo) of the same sequence?
A: Its value is “marked improvements”.

Q: What about the Spectral peak positions ([3]; mouse, in vivo) of the same sequence?
A: Its Spectral peak positions is “not visibly altered”.

Q: What about the eNOS signal [4] of the same sequence?
A: The eNOS signal was “reduced”.
